Data taken from patent US8232273B2, “Heterocyclic compounds and methods of use” (Genentech, Inc., priority 2008, dated 2012).

Columns and labels:
[1] = test system: Bcl-2, Bcl-w and Bcl-xL; settings: cited from earlier work
[2] = test system: Mcl-1 and A1; settings: cited from earlier work
[3] = test system: xenograft models; settings: animal studies, single agent; cited from earlier work
[4] = test system: Mcl-1-/- mouse embryonic fibroblasts (MEF); experiment: Cell viability assay for Mcl-1-/- mouse embryonic fibroblasts (CellTiter-Glo); type: cell-based; settings: Fibroblast, in the presence of 10% Fetal Bovine Serum, read-out: MEF Mcl-1-/- KO cell viability results (EC50)
Description: a. Cell Viability Assay for Mcl-1^−/− Mouse Embryonic Fibroblasts (MEF): […]
In this assay, Mcl-1^(−/−) cells were used to confirm that cell apoptosis in the presence of BH3 mimetic small molecules was due to predominantly Bcl-xL inactivation. This inactivation leaves Bax/Bak unconstrained and results in apoptosis. The […]-GLO Luminescent Cell Viability Assay is a homogeneous method of determining the number of viable cells in culture based on quantitation of the ATP present. The amount of ATP correlates with the presence of metabolically active cells such that following cell lysis the amount of ATP present is proportional to the amount of luminescence measured.
Mcl-1^(−/−) mouse embryonic fibroblasts (MEFs) are an adherent cell line prepared in house. MEFs were grown in Iwaki 75 cm^2 tissue culture flasks (cat #3123-075) with FMA media which consists of • 89% DME Kelso • 10% heat-inactivated foetal calf serum (FCS) (Hyclone cat #SH30396.03) • 1% 10 mM asparagine (Fluka cat #11149) • 275 μl of a 1:2000 dilution of 2-mercaptoethanol is added to the final 500 ml volume of FMA (Sigma cat #M7522; diluted in MT-PBS)
FMA was stored at 4° C. and used at 37° C. MEFs were cultured in FMA media and harvested in MT-PBS and trypsin. For MEF cell viability assays, cells were seeded separately in plates with 10% FCS-FMA and 1% FCS-FMA.
Assays were performed using white, flat clear-bottom Greiner 384-well tissue culture grade (Interpath #781098) plates. The compounds were made up in Matrical 384-well, 25 μl V-bottomed plates (cat #MP101-2-PP), sealed with aluminium foil from Beckman Coulter (cat #538619) and stored at 12° C. overnight. Compound preparation and titrations were performed in AnalaR grade DMSO (Merck cat #1.02952.2500). The cell viability detection assay used was […]-GLO™ which is commercially available from Promega (cat #G7572), stored at −20° C. and used at 37° C.
Compounds of the invention were prepared as 10 mM solution in 100% DMSO and stored at −20° C. Compounds were thawed to room temperature and dispensed into a 384 well Matrical plate. Standard control compounds, e.g. 32.3 mM Etoposide, were added to the plate as controls.
The media was aspirated and the Mcl-1^(−/−) cells washed with 10 mls of warmed MT-PBS. MT-PBS was aspirated and 1 ml of trypsin was added. The T75 flasks were incubated at 37° C. until the cells became detached. 4 ml of 10% FCS FMA media was added to the trypsinized cells and the entire volume was transferred to a 50 ml centrifuge tube and centrifuged for 3 minutes at 250 g. The supernatant was aspirated and the pellet resuspended in 10 ml of 10% FCS FMA. 3 ml of this cell suspension was added to a clean 75 cm^2 flask containing 17 ml of 10% FCS FMA media, thus performing a 3:10 split. The remaining cell suspension was used to perform a 1:50 split into another 75 cm^2 flask for further culturing.
Cells were harvested as per method step 1 and the pellet resuspended in 3 mls 10% FCS FMA. Cell number was determined by counting in a Neubauer haemocytometer and the dilution calculated to achieve a density of 1×10^4 cells ml^−1 (500 cells per well in 50 μl media). Separate dilutions were prepared in 50 ml 10% FCS FMA and 50 ml 1% FCS FMA solutions respectively.
Four assay plates were set up per compound plate. Two 384 well plates containing Mcl-1^(−/−) cells in 10% FCS FMA and the other two plates containing Mcl-1^(−/−) cells in 1% FCS FMA.
Using the Multidrop, 25 μl cells were dispensed aseptically into all 384 wells of the assay plates. Plates were left to rest in a non-stacked layer at room temperature for approximately 30 minutes (minimizes edge-effects) and then were placed as a single layer in the 37° C. incubator. The plates were left to incubate overnight.
The compound plates were titrated by performing a 3-fold 11-point dilution series using 100% DMSO on the MiniTrak. Following titration of the compounds, 100 nl of compounds were added to the cell plates using the Zymark Sciclone Pintool. […]

[5] = target: T1, Bcl-2 (GST-Bcl-2) (Homo sapiens, UniProt P10415); experiment: TR-FRET binding assay, competition with F-Bak for the Bcl-2 binding site; settings: Bcl-2, for comparison (selectivity)
T1 construct: made in house
T1 sequence (P10415 whole entry, species assumed): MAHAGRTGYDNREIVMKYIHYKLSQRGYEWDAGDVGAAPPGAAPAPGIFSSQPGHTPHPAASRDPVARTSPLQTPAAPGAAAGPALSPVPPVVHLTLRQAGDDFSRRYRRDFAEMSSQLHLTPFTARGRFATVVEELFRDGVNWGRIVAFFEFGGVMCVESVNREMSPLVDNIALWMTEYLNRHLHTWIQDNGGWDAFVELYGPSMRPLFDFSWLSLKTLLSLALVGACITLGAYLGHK
Protocol: For each assay plate, a probe/antibody and protein/antibody/probe mixture were included as a negative and a positive control, respectively. Fluorescence was measured on the Envision (Perkin Elmer) using a 340/35 nm excitation filter and 520/525 (F-Bak) and 495/510 nm (Tb-labeled anti-his antibody) emission filters. Dissociation constants (Ki) were determined using Wang's equation (see, Wang, Z. X. An exact mathematical expression for describing competitive binding of two different ligands to a protein molecule. FEBS Lett. 1995 360:111-114). The TR-FRET assay can be performed in the presence of varying concentrations of human serum (HS) or fetal bovine serum (FBS). For comparison, the measurement of the competition of compounds of the invention for other Bcl-2 family protein binding sites (e.g., Bcl-2, Mcl-1) using the TR-FRET binding assay was accomplish by substituting GST-Bcl-xL in the TR-FRET assay with other GST-labeled protein, e.g., GST-Bcl-2, GST-Mcl-1, prepared in-house.

[6] = test system: platelets; experiment: Cell viability assay for platelets (platelet rich plasma, CellTiter-Glo); type: cell-based; settings: approximately 4 hours at 37 C
Protocol: Platelet rich plasma (PRP) was incubated with a compound of the invention for approximately 4 hours at 37° C. After incubation, platelets were equilibrated to room temperature for 20 minutes and then and equal volume of CELL TITER-GLO™ reagent (Promega Corporation) was added. Samples were mixed for two minutes and then allowed to equilibrate for an additional 10 minutes at room temperature. The luminescence generated from the samples was quantitated using a LJL Analyst plate reader. Data analysis was performed using GraphPad Prism 4.0.

[7] = test system: NCI-H146 human small cell lung carcinoma cells; experiment: Cellular viability of human tumor cell line NCI-H146 (MTS assay); type: cell-based; settings: 10% human serum, 48 hours of compound treatment
Protocol: NCI-H146 (ATCC, Manassas, Va.) human small cell lung carcinoma cells were plated 50,000 cells per well in 96-well tissue culture plates in a total volume of 100 μL tissue culture medium supplemented with 10% human serum (Invitrogen, Carlsbad, Calif.) and treated with a 2-fold serial dilution of the compounds of interest from 10 μM to […].
Each concentration was tested in duplicate at least 3 separate times. The number of viable cells following 48 hours of compound treatment was determined using the […] 96® Aqueous non-radioactive cell proliferation MTS assay according to manufacturer's recommendations (Promega Corp., Madison, Wis.).

[8] = target: Bcl-xL (GST-Bcl-xL) (Homo sapiens, UniProt Q07817); experiment: TR-FRET binding assay, competition with F-Bak for the Bcl-xL binding site; settings: values listed in the order of Table 1, read-out: TR-FRET assay results (Ki), Bcl-xL
Sequence of Bcl-xL (GST-Bcl-xL) (Q07817 whole entry, species assumed): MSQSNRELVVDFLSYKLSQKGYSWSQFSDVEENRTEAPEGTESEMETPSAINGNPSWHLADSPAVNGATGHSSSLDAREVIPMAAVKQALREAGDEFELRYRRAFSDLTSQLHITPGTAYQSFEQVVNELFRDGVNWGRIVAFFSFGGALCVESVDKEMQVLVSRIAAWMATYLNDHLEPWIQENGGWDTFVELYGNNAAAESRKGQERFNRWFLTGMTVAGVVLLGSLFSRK

SMILES: CC1(C)CCC(c2ccc(Cl)cc2)=C(CN2CCN(c3ccc(C(=O)NS(=O)(=O)c4ccc(N[C@H](CCN5CCOCC5)CSc5ccccc5)c(S(=O)(=O)C(F)(F)F)c4)cc3)CC2)C1 [ABT-263, N-(4-(4-((2-(4-chlorophenyl)-5,5-dimethyl-1-cyclohex-1-en-1-yl)methyl)piperazin-1-yl)benzoyl)-4-(((1R)-3-(morpholin-4-yl)-1-((phenylsulfanyl)methyl)propyl)amino)-3-((trifluoromethyl)sulfonyl)benzenesulfonamide]
- binding to Bcl-2, Bcl-w and Bcl-xL [1]: bind strongly
- binding to Mcl-1 and A1 [2]: only weakly
- cytotoxic activity in certain xenograft models as single agents [3]: demonstrated cytotoxic activity

SMILES: CN(C)CC[C@H](CSc1ccccc1)Nc1ccc(S(=O)(=O)NC(=O)c2ccc(N3CCN(Cc4ccccc4-c4ccc(Cl)cc4)CC3)cc2)cc1[N+](=O)[O-] [ABT-737, N-(4-(4-((4′-chloro(1,1′-biphenyl)-2-yl)methyl)piperazin-1-yl)benzoyl)-4-(((1R)-3-(dimethylamino)-1-((phenylsulfanyl)methyl)propyl)amino)-3-nitrobenzenesulfonamide]
- binding to Bcl-2, Bcl-w and Bcl-xL [1]: bind strongly
- binding to Mcl-1 and A1 [2]: only weakly
- cytotoxic activity in certain xenograft models as single agents [3]: demonstrated cytotoxic activity

SMILES: CN(C)CC#Cc1ccc(OCCCc2sc(N3CCc4cccc(C(=O)Nc5nc6ccccc6s5)c4C3)nc2C(=O)O)cc1 [Example 74, 2-[8-(Benzothiazol-2-ylcarbamoyl)-3,4-dihydro-1H-isoquinolin-2-yl]-5-{3-[4-(3-dimethylamino-prop-1-ynyl)-phenoxy]-propyl}-thiazole-4-carboxylic acid]
- EC50 [4]: 7 nM
- Ki [5]: 60 nM
- EC50 [6]: 21 nM
- EC50 [7]: 710 nM
- Ki [8]: 0.05 nM

SMILES: CN1CCN(c2ccc(OCCCc3sc(N4CCc5cccc(C(=O)Nc6nc7ccccc7s6)c5C4)nc3C(=O)O)cc2)CC1 [Example 82, 2-[8-(Benzothiazol-2-ylcarbamoyl)-3,4-dihydro-1H-isoquinolin-2-yl]-5-{3-[4-(4-methyl-piperazin-1-yl)-phenoxy]-propyl}-thiazole-4-carboxylic acid]
- EC50 [4]: 30 nM
- Ki [5]: 120 nM
- EC50 [7]: 2500 nM
- Ki [8]: 0.05 nM

SMILES: CN1CCN(CCCNc2ncnc3c2cnn3-c2ccc(OCCCc3sc(N4CCc5cccc(C(=O)Nc6nc7ccccc7s6)c5C4)nc3C(=O)O)cc2)CC1 [Example 84, 2-(8-(benzo[d]thiazol-2-ylcarbamoyl)-3,4-dihydroisoquinolin-2(1H)-yl)-5-(3-(4-(4-(3-(4-methylpiperazin-1-yl)propylamino)-1H-pyrazolo[3,4-d]pyrimidin-1-yl)phenoxy)propyl)thiazole-4-carboxylic acid]
- EC50 [4]: 22 nM
- Ki [5]: 140 nM
- EC50 [7]: 610 nM
- Ki [8]: 0.05 nM

SMILES: CN1CCN(c2ccc(OCCCc3sc(N4CCc5cccc(C(=O)Nc6nc7ccccc7s6)c5C4)nc3C(=O)O)c(F)c2)CC1 [Example 93, 2-[8-(Benzothiazol-2-ylcarbamoyl)-3,4-dihydro-1H-isoquinolin-2-yl]-5-{3-[2-fluoro-4-(4-methyl-piperazin-1-yl)-phenoxy]-propyl}-thiazole-4-carboxylic acid]
- Ki [5]: 155 nM
- EC50 [7]: 3200 nM
- Ki [8]: 0.05 nM

SMILES: CN(C)CC#Cc1ccc(OCCCc2ccc(N3CCc4cccc(C(=O)Nc5nc6ccccc6s5)c4C3)nc2C(=O)O)c(F)c1 [Example 97, 6-(8-(benzo[d]thiazol-2-ylcarbamoyl)-3,4-dihydroisoquinolin-2(1H)-yl)-3-(3-(4-(3-(dimethylamino)prop-1-ynyl)-2-fluorophenoxy)propyl)picolinic acid]
- EC50 [4]: 26 nM
- Ki [5]: 272 nM
- EC50 [6]: 3 nM
- EC50 [7]: 2400 nM
- Ki [8]: 0.05 nM
